Reference: US10806142B2, “2-amino-5-ketoxime-pyrimidine derivatives and their use for controlling undesired plant growth” (Bayer CropScience Aktiengesellschaft, priority 2015, dated 2020)

How the values were obtained:
[1] = tested on: Stellaria media; assay: Pre-emergence herbicidal effect; format: in vivo
From the text: (§1) 1. Pre-Emergence Herbicidal Effect and Crop Plant Compatibility Seeds of monocotyledonous and dicotyledonous weed plants and crop plants are laid out in wood-fiber pots in sandy loam and covered with soil. The compounds of the invention, formulated in the form of wettable powders (WP) or as emulsion concentrates (EC), are then applied to the surface of the covering soil as aqueous suspension or emulsion at a water application rate equating to 600 to 800 L/ha with addition of 0.2% wetting agent. After the treatment, the pots are placed in a greenhouse and kept under good growth conditions for the trial plants. The damage to the trial plants is scored visually after a trial duration of 3 weeks by comparison with untreated controls (herbicidal activity in percent (%): 100% efficacy=the plants have died, 0% efficacy=like control plants). [table]

[2] = tested on: Setaria viridis; assay: Pre-emergence herbicidal effect; format: in vivo; settings: dosage 320 g a.i./ha
From the text: as §1

[3] = tested on: Polygpnum convolvulus; assay: Pre-emergence herbicidal effect; format: in vivo; settings: dosage 320 g a.i./ha
From the text: as §1

[4] = tested on: Veronica persica; assay: Pre-emergence herbicidal effect; format: in vivo
From the text: as §1

[5] = tested on: Amaranthus retroflexus; assay: Pre-emergence herbicidal effect; format: in vivo
From the text: as §1

[6] = tested on: Matricaria inodora; assay: Pre-emergence herbicidal effect; format: in vivo
From the text: as §1

[7] = tested on: Echinochloa crus-galli; assay: Pre-emergence herbicidal effect; format: in vivo; settings: dosage 320 g a.i./ha
From the text: as §1

[8] = tested on: Viola tricolor; assay: Pre-emergence herbicidal effect; format: in vivo
From the text: as §1

[9] = tested on: Stellaria media; assay: Post-emergence herbicidal effect; format: in vivo; settings: visual score after about 3 weeks
Method: (§2) [table] 2. Post-Emergence Herbicidal Effect and Crop Plant Compatibility Seeds of monocotyledonous and dicotyledonous weed and crop plants are laid out in sandy loam in wood-fiber pots, covered with soil and cultivated in a greenhouse under good growth conditions. 2 to 3 weeks after sowing, the test plants are treated at the one-leaf stage. The compounds of the invention, formulated in the form of wettable powders (WP) or as emulsion concentrates (EC), are then sprayed onto the green parts of the plants as aqueous suspension or emulsion at a water application rate equating to 600 to 800 L/ha with addition of 0.2% wetting agent. After the trial plants have been left to stand in a greenhouse under optimal growth conditions for about 3 weeks, the efficacy of the formulations is scored visually in comparison to untreated controls (herbicidal action in percent (%): 100% efficacy=the plants have died, 0% efficacy=like control plants).

[10] = tested on: Cyperus esculentus; assay: Post-emergence herbicidal effect; format: in vivo; settings: dosage 320 g a.i./ha, visual score after about 3 weeks
Method: as §2

[11] = tested on: Abutilon theophrasti; assay: Post-emergence herbicidal effect; format: in vivo; settings: visual score after about 3 weeks
Method: as §2

[12] = tested on: Ipomoea purpurea; assay: Post-emergence herbicidal effect; format: in vivo; settings: dosage 320 g a.i./ha, visual score after about 3 weeks
Method: as §2

[13] = tested on: Polygpnum convolvulus; assay: Post-emergence herbicidal effect; format: in vivo; settings: visual score after about 3 weeks
Method: as §2

[14] = tested on: Amaranthus retroflexus; assay: Post-emergence herbicidal effect; format: in vivo; settings: dosage 320 g a.i./ha, visual score after about 3 weeks
Method: as §2

[15] = tested on: Matricaria inodora; assay: Post-emergence herbicidal effect; format: in vivo; settings: dosage 320 g a.i./ha, visual score after about 3 weeks
Method: as §2

[16] = tested on: Lolium multiflorum; assay: Post-emergence herbicidal effect; format: in vivo; settings: dosage 320 g a.i./ha, visual score after about 3 weeks
Method: as §2

[17] = tested on: Viola tricolor; assay: Post-emergence herbicidal effect; format: in vivo; settings: visual score after about 3 weeks
Method: as §2

[18] = logp (HCOOH), physicochemical characterization; settings: HCOOH (formic acid)

C/C(=N/Oc1ccc(F)cc1)c1cnc(N[C@H]2c3cc(C)ccc3C[C@@H]2C)nc1 [Compound 1.101b, N-[(1R,2S)-2,6-dimethyl-2,3-dihydro-1H-inden-1-yl]-5-[(1Z)-N-(4-fluorophenoxy)ethanimidoyl]pyrimidine-2-amine]
Herbicidal activity against STEME ([1]; dosage 80 g a.i./ha): 100%
Herbicidal activity against STEME ([1]; dosage 320 g a.i./ha): 100%
Herbicidal activity against SETVI [2]: 100%
Herbicidal activity against POLCO [3]: 100%
Herbicidal activity against VERPE ([4]; dosage 80 g a.i./ha): 100%
Herbicidal activity against VERPE ([4]; dosage 320 g a.i./ha): 100%
Herbicidal activity against AMARE ([5]; dosage 80 g a.i./ha): 90%
Herbicidal activity against AMARE ([5]; dosage 320 g a.i./ha): 100%
Herbicidal activity against MATIN ([6]; dosage 80 g a.i./ha): 80%
Herbicidal activity against MATIN ([6]; dosage 320 g a.i./ha): 100%
Herbicidal activity against ECHCG [7]: 90%
Herbicidal activity against VIOTR ([8]; dosage 80 g a.i./ha): 90%
Herbicidal activity against VIOTR ([8]; dosage 320 g a.i./ha): 100%
Herbicidal activity against STEME ([9]; dosage 80 g a.i./ha): 80%
Herbicidal activity against STEME ([9]; dosage 320 g a.i./ha): 90%
Herbicidal activity against CYPES [10]: 100%
Herbicidal activity against ABUTH ([11]; dosage 80 g a.i./ha): 80%
Herbicidal activity against ABUTH ([11]; dosage 320 g a.i./ha): 100%
Herbicidal activity against PHBPU [12]: 100%
Herbicidal activity against POLCO ([13]; dosage 80 g a.i./ha): 80%
Herbicidal activity against POLCO ([13]; dosage 320 g a.i./ha): 100%
Herbicidal activity against AMARE [14]: 90%
Herbicidal activity against MATIN [15]: 100%
Herbicidal activity against LOLMU [16]: 100%
Herbicidal activity against VIOTR ([17]; dosage 80 g a.i./ha): 90%
Herbicidal activity against VIOTR ([17]; dosage 320 g a.i./ha): 90%
chromatographic logP [18]: 5.56
